# Data from US20240261315A1 (Omikron Italia S.r.l., priority 2021, published 2024).
# What was measured:
# [1] = parameters: species or system Sprague-Dawley rats; settings: male, Sprague-Dawley, rat, in vivo
# Method: The bioavailability of citicoline existing in the composition, the invention relates to, was surveyed by making a bioavailability study on Sprague-Dawley rats. In particular, 30 Sprague-Dawley male rats, weighing 175 and 225 g, were subjected fasting 16 hours before administration.
# For the preparation of the radiomarked formulations 14C-methylCiticoline and […] were used.
# The preparations were purified by ion-exchange chromatography by using isobutyric acid:water-ammonia:EDTA (500:280:21:8), n-butanol:acetic acid:water (12:3:5), ethanol:1 mol/l ammonium acetate pH 7 (5:2), ethanol:saturated borax (8%):0.5 mol/l EDTA:5 mol/l ammonium acetate (220:80:0.5:20).
# The samples were analysed with a liquid scintillator counter LSC, according to the programme for ^14C.
# For the quantitative analysis Packard soluene (solubilizing agent), H2O2 (bleaching agent) and Packard Instagel (scintillator) were used as reagents.
# The formulations were administered at the dose of 5 mg/kg respectively: Group 1, intravenously in the jugular vein; Group 2, in oral solution administered by nasogastric tube; Group 3, in tablets dissolved in saline solution and administered by nasogastric tube.
# The collections of blood samples of about […] were obtained at programmed time (after administration at 10′, 20′, 30′, 1 h, 2 h, 3 h, 4 h, 5 h, 6 h, 7 h, 24 h). […]
# [2] = tested on: db/db mice; assay: SD-OCT measurement of retinal layer thickness in db/db mice; format: in vivo; settings: 15 days oral treatment; for GC/IPL layer thickness / INL layer thickness / RNFL layer thickness: SD-OCT; for alteration in the thickness of retinal layers: vs placebo or healthy control
# Description: The db/db mice have a mutation in the leptin receptor gene and they are an animal model of retinal neurodegeneration. Such model is useful to mime the pathophysiological events which are found in neurodegenerative pathologies such as glaucoma.
# 20 db/db […] (BKS.Cg-+Leprdb/+Leprdb/OlaHsd, males, 10 weeks) were randomized in 5 groups and treated for 15 days by oral route with oral solutions based on: • 1. Citicoline 0.5% (Cit.) in 10% lactose solution administered with nasogastric tube (SNG); • 2. […] 10% lactose solution (Placebo) administered with SNG; • 5. Healthy, non-diabetic control (Control).
# On day 15, 1 hour after the administration of the several treatments, the mice were subjected to (i) very high-resolution Spectral Domain Optical Coherence Tomography (SD-OCT), to obtain, in vivo, detailed images relating to the morphology of the different retinal layers. The mice were subjected to anaesthesia induced by single intraperitoneal injection of 80 mg/ml Ketamine, xylazine 12 mg/ml (Sigma-Adrich). Subsequently, to induce mydriasis, one single drop of 0.5% tropicamide was instilled and then each mouse positioned in front of the objective of OCT.
# For all animals only the right eye was examined and the average obtained from three consecutive retinal scanning for each eye was considered for each layer. The OCT images were acquired through bidimensional scanning (B-scan) combined to noise reduction software with ART (automatic real time) and with a visual field of 30 degrees focalized on the head of the optic nerve. After OCT examination the animals were sacrificed by cervical dislocation and the eyes immediately enucleated.
# [3] = tested on: retinal ganglion cells; assay: Clinical observation: electro-functional test, PERG; format: in vivo, human; settings: after 6 months of treatment, in addition to hypotensive therapy, 3 patients
# Method: 12 randomized patients were included in 4 groups: • CIT. GROUP-3 patients treated with citicoline in oral solution 10 ml/die corresponding to 500 mg/die of citicoline, in addition to the hypotensive therapy; • NIC. […] The patients were treated and followed for 6 months. At baseline and after 6 months of treatment complete eye examination including visual acuity, control of the intraocular pressure (IOP) with Goldmann tonometry (GAT); visual field testing, electro-functional and morphological examination were performed. Then (2) electro-functional test was performed: electroretinogram from PERG pattern and of the PEV visual evoked potentials to evaluate the bioelectric responses respectively of the retinal ganglion cells and of the visual cortex evoked from the visual stimuli. The patients were positioned in an acoustically insulated semi-dark room, in front of the display surrounded by a uniform field of luminance of 5 cd/m2. […] The signal to PERG and PEV was recorded by a small electrode of Ag/AgCl positioned respectively above the lower eyelid and on the scalp. […] The peak-peak widths were measured at PERG P50-N95 for each wave. […] During a recording session, simultaneous PERG and PEV were recorded at least twice (between two and six times) and the resulting waveforms were overlapped to verify the repeatability of results. […]
SMILES,bioavailability [1] [%],GC/IPL layer thickness [2] [μm],INL layer thickness [2] [μm],RNFL layer thickness [2] [μm],alteration in the thickness of retinal layers [2],PERG P50-N95 A [3]
"C[N+](C)(C)CCOP(=O)([O-])OP(=O)(O)OC[C@H]1O[C@@H](n2ccc(N)nc2=O)C(O)C1O (stereo partly drawn) [Citicoline, citidin-5′-difosfocholine]",~100,59.3 ± 4.8,20.9 ± 2.5,22.3 ± 1.3,less reduction in the thickness of the layers,1.77 (±0.27) microV
NC(=O)c1cccnc1 [Nicotinamide],~100,58.8 ± 5.2,21.1 ± 2.1,21.8 ± 2.4,less reduction in the thickness of the layers,1.74 (±0.21) microV
